Read-outs that look alike come from different tables or passages of the source.
Experiments:
BCL-2 = BCL-2 (Homo sapiens (Human), UniProt P10415); experiment: BCL-2 TR-FRET Assay (primary PPI inhibition); type: binding; conditions: 60 min incubation, read-out: BCL2 IC50
Procedure, shortened: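 His-tagged BCL-2 (3 ng) with anti-His Tb donor, dye-labeled acceptor and BCL-2 peptide ligand; compound added at 200× stock, final DMSO 0.5%. 60 min incubation, then TR-FRET read at 340 nm excitation, 620/665 nm emission, 60 µs delay, 500 µs integration.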

BCL-xL = BCL-xL (Homo sapiens (Human), UniProt Q07817); experiment: BCL-xL TR-FRET Assay (primary PPI inhibition); type: binding; conditions: 60 min incubation, read-out: BCLxL IC50
Sequence of BCL-xL (Q07817 whole entry): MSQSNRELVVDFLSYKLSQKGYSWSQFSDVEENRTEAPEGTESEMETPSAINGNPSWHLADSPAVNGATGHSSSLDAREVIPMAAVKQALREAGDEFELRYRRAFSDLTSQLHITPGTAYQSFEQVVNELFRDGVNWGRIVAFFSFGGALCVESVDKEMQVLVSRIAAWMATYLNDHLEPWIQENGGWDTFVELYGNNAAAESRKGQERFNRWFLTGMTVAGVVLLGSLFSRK
Procedure, shortened: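 TR-FRET competition of His-tagged BCL-xL (10.5 ng) binding to dye-labeled peptide ligand, with anti-His Tb donor; compound added from 200× stock, 0.5% DMSO final. After 60 min incubation, read at 340 nm excitation, 620/665 nm emission, 60 µs delay, 500 µs integration.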

BCL-2 [G101V] = BCL-2 [G101V] (Homo sapiens (Human), UniProt P10415, G101V); experiment: BCL-2 [G101V] TR-FRET Assay (primary PPI inhibition); type: binding; conditions: 60 min incubation, read-out: BCL2[G101V] IC50
Method: Example C. BCL-2 [G101V]TR-FRET Assay
The following assay concentrations and times were used: 0.22 ng/μl of BCL-2 (SinoBiological, #10195-H08E1), 5 μL of 1:100 anti-His Tb-labeled donor, 5 μL of 1:100 Dye-labeled acceptor, 5 μL of 1:40 BCL-2 Peptide Ligand (BPS Bioscience, #50223), and 2 μL of 200× test compound, with 60 min incubation time (final concentration of DMSO 0.5%). The results of the assay were read using a plate reader with the following parameters: TR FRET, 340ex/620 and 665em; 60 usec Delay; and 500 usec integration.
Instrumentation: CLARIOstar Plus (BMG LABTECH); Biomek FX for liquid handling (Beckman Coulter).

RS4-11 cells = experiment: Cell viability assay (CellTiter-Glo), RS4-11; type: cell-based; conditions: 3 days of incubation
Procedure, shortened: (§1)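 4000 cells/well in DMEM (HEK293, adhered overnight) or RPMI (RS4-11, MOLT-4) with 10% FBS; compounds added at 0.2% DMSO final. After 3 days, viability read by CellTiter-Glo luminescence.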

[1] = Cell viability assay (CellTiter-Glo), HEK293; type: cell-based; conditions: human, HEK293 cells, 3 days of incubation
Procedure, shortened: as §1

MOLT-4 cells = experiment: Cell viability assay (CellTiter-Glo), MOLT-4; type: cell-based; conditions: 3 days of incubation
Procedure, shortened: as §1

[2] = system: caspase-3 and -7 activities in RS4-11 cells; experiment: Caspase-3/7 activation (Caspase-Glo 3/7) in RS4-11 cells; type: cell-based; conditions: 3.5 h, read-out: Cas-3/7 EC50
Procedure, shortened: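 RS4-11 cells exposed to graded compound concentrations for 3.5 h at 37 °C, 5% CO2. Caspase-3/7 activity then read as luminescence after 30 min at rt with a DEVD-based luminogenic substrate reagent.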

HEK293 cells = experiment: Cell viability assay (CellTiter-Glo), HEK293; type: cell-based; conditions: 3 days of incubation
Procedure, shortened: as §1

| SMILES | IC50 (BCL-2) [µM] | IC50 (BCL-xL) [µM] | IC50 (BCL-2 [G101V]) [µM] | CC50 (RS4-11 cells; Homo sapiens, RS4-11, 72 h) [µM] | CC50 at 3 days [1] [µM] | CC50 (MOLT-4 cells; Homo sapiens, 72 h) [µM] | EC50 ([2]; Homo sapiens) [µM] | CC50 (HEK293 cells) [µM] | CC50 (RS4-11 cells) [µM] | CC50 (MOLT-4 cells) [µM] | EC50 [2] [µM] |
| --- | --- | --- | --- | --- | --- | --- | --- | --- | --- | --- | --- |
| COc1cc(C(=O)N2Cc3ccccc3C[C@H]2CN2CCOCC2)c(-c2cc(C(=O)N(Cc3cccc(OC)c3C)c3ccc(O)cc3)c(C)n2C)cc1F [Compound 21, 5-[5-fluoro-4-methoxy-2-[(3S)-3-(morpholinomethyl)-3,4-dihydro-1H-isoquinoline-2-carbonyl]phenyl]-N-(4-hydroxyphenyl)-N-[(3-methoxy-2-methyl-phenyl)methyl]-1,2-dimethyl-pyrrole-3-carboxamide] | 0.01 to 0.05 | 2 to 5 | 0.1 to 1 | 0.1 to 0.2 | > 25 | ≤ 5 | ≤ 0.2 |  |  |  |  |
| COc1cccc(CN(C(=O)c2cc(-c3cc(Cl)c(F)cc3C(=O)N3Cc4ccccc4C[C@H]3CN3CCOCC3)n(C)c2C)c2ccc(C#N)cc2)c1C [Compound 29, 5-[5-chloro-4-fluoro-2-[(3S)-3-(morpholinomethyl)-3,4-dihydro-1H-isoquinoline-2-carbonyl]phenyl]-N-(4-cyanophenyl)-N-[(3-methoxy-2-methyl-phenyl)methyl]-1,2-dimethyl-pyrrole-3-carboxamide] | 0.01 to 0.05 |  |  | 0.1 to 0.2 |  | > 10 | > 0.5 | > 25 |  |  |  |
| COc1cccc(CN(C(=O)c2cc(-c3ccc(OC(F)F)cc3C(=O)N3Cc4ccccc4C[C@H]3CN3CCOCC3)n(C)c2C)c2ccc(O)cc2)c1C [Compound 31, 5-[4-(difluoromethoxy)-2-[(3S)-3-(morpholinomethyl)-3,4-dihydro-1H-isoquinoline-2-carbonyl]phenyl]-N-(4-hydroxyphenyl)-N-[(3-methoxy-2-methyl-phenyl)methyl]-1,2-dimethyl-pyrrole-3-carboxamide] | 0.005 to 0.01 | 2 to 5 | > 1 | > 0.2 | > 25 | ≤ 5 | > 0.5 |  |  |  |  |
| COc1cccc(CN(C(=O)c2cc(-c3cc(Cl)c(OC(F)F)cc3C(=O)N3Cc4ccccc4C[C@H]3CN3CCOCC3)n(C)c2C)c2ccc(O)cc2)c1C [Compound 36, 5-[5-chloro-4-(difluoromethoxy)-2-[(3S)-3-(morpholinomethyl)-3,4-dihydro-1H-isoquinoline-2-carbonyl]phenyl]-N-(4-hydroxyphenyl)-N-[(3-methoxy-2-methyl-phenyl)methyl]-1,2-dimethyl-pyrrole-3-carboxamide] | 0.005 to 0.01 | 2 to 5 | 0.1 to 1 | > 0.2 | > 25 | 5 to 10 | > 0.5 |  |  |  |  |
| COc1cccc(CN(C(=O)c2cc(-c3cc(C(F)F)c(Cl)cc3C(=O)N3Cc4ccccc4C[C@H]3CN3CCOCC3)n(C)c2C)c2ccc(O)cc2)c1C [Compound 43, 5-[4-chloro-5-(difluoromethyl)-2-[(3S)-3-(morpholinomethyl)-3,4-dihydro-1H-isoquinoline-2-carbonyl]phenyl]-N-(4-hydroxyphenyl)-N-[(3-methoxy-2-methyl-phenyl)methyl]-1,2-dimethyl-pyrrole-3-carboxamide] | ≤ 0.005 | 2 to 5 | 0.1 to 1 | > 0.2 | > 25 | ≤ 5 | > 0.5 |  |  |  |  |
| COc1cccc(CN(C(=O)c2cc(-c3cc(F)c(F)cc3C(=O)N3Cc4ccccc4C[C@H]3CN3CCOCC3)n(C)c2C)c2ccc(O)cc2)c1C [Compound 51, 5-[4,5-difluoro-2-[(3S)-3-(morpholinomethyl)-3,4-dihydro-1H-isoquinoline-2-carbonyl]phenyl]-N-(4-hydroxyphenyl)-N-[(3-methoxy-2-methyl-phenyl)methyl]-1,2-dimethyl-pyrrole-3-carboxamide] | 0.01 to 0.05 | 2 to 5 | 0.1 to 1 | 0.1 to 0.2 | > 25 | ≤ 5 | 0.2 to 0.5 |  |  |  |  |
| COc1cccc(CN(C(=O)c2cc(-c3cc(F)ccc3C(=O)N3Cc4ccccc4C[C@H]3CN3CCOCC3)n(C)c2C)c2ccc(O)cc2)c1C [Compound 52, 5-[5-fluoro-2-[(3S)-3-(morpholinomethyl)-3,4-dihydro-1H-isoquinoline-2-carbonyl]phenyl]-N-(4-hydroxyphenyl)-N-[(3-methoxy-2-methyl-phenyl)methyl]-1,2-dimethyl-pyrrole-3-carboxamide] | ≤ 0.005 | 2 to 5 | ≤ 0.1 | ≤ 0.1 | > 25 | ≤ 5 | 0.2 to 0.5 |  |  |  |  |
| COc1ccccc1CN(C(=O)c1cc(-c2cc(F)ccc2C(=O)N2Cc3ccccc3C[C@H]2CN2CCOCC2)n(C)c1C)c1ccc(O)cc1 [Compound 54, 5-[5-fluoro-2-[(3S)-3-(morpholinomethyl)-3,4-dihydro-1H-isoquinoline-2-carbonyl]phenyl]-N-(4-hydroxyphenyl)-N-[(2-methoxyphenyl)methyl]-1,2-dimethyl-pyrrole-3-carboxamide] | 0.005 to 0.01 | ≤ 2 | ≤ 0.1 | 0.1 to 0.2 | > 25 | ≤ 5 | > 0.5 |  |  |  |  |
| COc1cccc(CN(C(=O)c2cc(-c3cc([N+](=O)[O-])ccc3C(=O)N3Cc4ccccc4C[C@H]3CN3CCOCC3)n(C)c2C)c2ccc3[nH]ncc3c2)c1C [Compound 65, N-(1H-indazol-5-yl)-N-[(3-methoxy-2-methyl-phenyl)methyl]-1,2-dimethyl-5-[2-[(3S)-3-(morpholinomethyl)-3,4-dihydro-1H-isoquinoline-2-carbonyl]-5-nitro-phenyl]pyrrole-3-carboxamide] | 0.01 to 0.05 | > 5 | > 1 | > 0.2 | 10 to 25 | ≤ 5 | > 0.5 |  |  |  |  |
| Cc1c(C(=O)N(Cc2ccccc2C#N)c2ccc3[nH]ncc3c2)cc(-c2cc(Cl)ccc2C(=O)N2Cc3ccccc3C[C@H]2CN2CCOCC2)n1C [Compound 68, 5-[5-chloro-2-[(3S)-3-(morpholinomethyl)-3,4-dihydro-1H-isoquinoline-2-carbonyl]phenyl]-N-[(2-cyanophenyl)methyl]-N-(1H-indazol-5-yl)-1,2-dimethyl-pyrrole-3-carboxamide] | 0.01 to 0.05 | > 5 | > 1 | > 0.2 | > 25 | > 10 | > 0.5 |  |  |  |  |
| COc1cccc(CN(C(=O)c2cc(-c3cc(Cl)ccc3C(=O)N3Cc4ccccc4C[C@H]3CN3CCOCC3)n(C)c2C)c2ccc3[nH]ncc3c2)c1C [Compound 70, 5-[5-chloro-2-[(3S)-3-(morpholinomethyl)-3,4-dihydro-1H-isoquinoline-2-carbonyl]phenyl]-N-(1H-indazol-5-yl)-N-[(3-methoxy-2-methyl-phenyl)methyl]-1,2-dimethyl-pyrrole-3-carboxamide] | 0.005 to 0.01 | > 5 | > 1 | > 0.2 | > 25 | ≤ 5 | > 0.5 |  |  |  |  |
| COc1cccc(CN(C(=O)c2cc(-c3cc(Cl)c(F)cc3C(=O)N3Cc4ccccc4C[C@H]3CN3CCOCC3)n(C)c2C)c2ccc(C#N)cc2)c1C [Compound 73, 5-[5-chloro-4-fluoro-2-[(3S)-3-(morpholinomethyl)-3,4-dihydro-1H-isoquinoline-2-carbonyl]phenyl]-N-(4-cyanophenyl)-N-[(3-methoxy-2-methyl-phenyl)methyl]-1,2-dimethyl-pyrrole-3-carboxamide] | > 0.05 | 2 to 5 |  |  |  |  |  | 10 to 25 | > 0.2 | > 10 | > 0.5 |
